Laboratory results published in patent US5852050A, “Preparation for treating wounds or hemorrhoids” (Kaken Pharmaceutical Co., Ltd., priority 1992, dated 1998).
“Also recorded” adds a separate entry of the source. Where two headings read alike, the source gives them in different places.

How the values were obtained:
Solubility in water = format: physicochemical; settings: beraprost or a salt thereof, powder
Chemical stability = format: physicochemical; settings: beraprost or a salt thereof, powder
[1] = test system: Experimental Hemorrhoids Model in Rats; assay: Prevention effects on experimental hemorrhoids model in rats (croton oil); format: in vivo, Male SLC: Wistar rats; set-up: Mucosa Bleeding, Necrosis, Peeling (total length from anus transition portion) / Mucosa Red thrombus (number of thrombus) / Mucosa Epithelium Activation, number of rats / Mucosa Congestion, number of rats / Submucosa Swelling, number of rats / Submucosa Inflammatory cell infiltration, number of rats: dose or concentration left out as unconfirmed; settings: for Submucosa Inflammatory cell infiltration, number of rats / Mucosa Congestion, number of rats / Mucosa Epithelium Activation, number of rats / Submucosa Swelling, number of rats: 8 rats
Method: (§1) Prevention and Therapy Effects on Experimental Hemorrhoids Model in Rats
(§2) A mixture of 1 volume of distilled water, 4 volumes of pyridine, 5 volumes of ethyl ether and 10 volumes of a 3% croton oil ethyl ether solution was used. The distilled water and a small amount of ethyl ether were added to, and blended with, the pyridine, and the 3% croton oil ethyl ether solution was added. Further, the remaining ethyl ether was added, and the mixture was vigorously stirred to prepare an inflammation-inducing agent containing croton oil. This solution was prepared just before the test, and stored with ice cooling during the test.
(§3) Beraprost (sodium salt) was dissolved in distilled water to prepare a solution for oral administration and dissolved in a saline solution to prepare a solution for intrarectal administration.
(§4) In the test of effects on the prevention of hemorrhoids, the dosage for oral administration was 0.1, 0.3 or 1.0 mg/kg, and the dosage for intrarectal administration was 0.01, 0.03, 0.1, 0.3 or 1.0 mg/kg. In the tests of effects on the therapy of hemorrhoids, the dosage for oral administration was 0.1 mg/kg, and the dosage for intrarectal administration was 0.03 mg/kg. Further, the dosage of the solution for oral administration was 10 ml/kg, and the dosage of the solution for intrarectal administration was 100 μl/kg.
(§5) Seven to 8 rats were used as one group.
In the test of prevention of hemorrhoids, beraprost was orally or intrarectally administered, and 30 minutes after the administration, 100 μl of the inflammation-inducing agent containing croton oil was infiltrated into the tampon of a swab and the tampon was inserted into the anus of each rat under no anesthesia for 10 seconds to induce inflammation.
Three hours after the induction of inflammation, the rats were sacrificed by bleeding under anesthesia with ethyl ether, and a rectum-anus portion was taken from each rat such that it was exactly 20 mm long from a circular hairline on the anus epithelium, and measured for a weight.
Further, in the intrarectally administered group, the isolated rectum-anus portion was fixed with a 10% neutral buffer formalin solution, and paraffin sections, Hematoxyrin-Eosin-stained specimens and Phosphotungstic acid hematoxyin-stained specimens were prepared according to conventional methods. Then, these were observed and their photographs were taken through an optical microscope The histological data obtained by the intrarectal administration of beraprost were examined.
(§6) In addition, distilled water alone was administered to the control group for oral administration, and a saline solution (vehicle) alone was administered to the control group for intrarectal administration. Further, for comparison, a non-treated group which was neither treated with the inflammation-inducing agent containing croton oil and nor treated with a medicament and which was neither administered with distilled water nor administered with a saline solution was tested in the same manner.
(§7) For the effect of beraprost on the weight of the rectum-anus portion, the difference from the control group was determined according to Student's t test, and for the histological data, the difference from the control group was determined according to Kruskal-Wallis H test. Further, the inhibition ratio was calculated on the basis of the rectum-anus portion average weight of each group by the following equation.
(§8) Inhibition ratio (%)={1-[medicament-administered group-non-treated
(§9) group)/(control group-non-treated group)]}×100

[2] = test system: Experimental Hemorrhoids Model in Rats; assay: Therapy effects on experimental hemorrhoids model in rats (croton oil); format: in vivo, Male SLC: Wistar rats; settings: for Wet weight of anus-rectum: twice a day for 4 days, average ± standard error, * P < 0.05 vs control
Method: as §1, §2, §3, §4, §5
In the test of effects on the therapy of hemorrhoids, inflammation was induced with an inflammation-inducing agent containing croton oil in the same manner as in the test of effects on the prevention. Beraprost was administered twice a day in the morning and evening for 4 days, and the administration was started one day after the induction of inflammation. Rectum-anus portions isolated after 5 days in the same manner as in the test of effects on prevention were measured for a weight.
as §6, §7, §8, §9

[3] = background statement; cited from earlier work
[4] = test system: full-thickness skin layer wounds of diabetic mice; assay: Effect of Beraprost on Wound Healing in full-thickness skin wound model of diabetic mice; format: in vivo, hereditary diabetic mice (C57BL/KsJ-dbm (db+/db+))
Excerpt: Effect of Beraprost on Wound Healing in Full Sickness Wound Model of Diabetic Mice Whose Full-Thickness Skin Layer was Ablated
Hair on the backs of hereditary diabetic mice (C57BL/KsJ-dbm (db+/db+), male, 11 to 12 weeks of age, 6 mice per group) was removed one day before a test. The back portions of the mice were cleaned with ethanol under ether anesthesia, and circular full-thickness skin layer wounds (2 cm^2) were formed in the middle portions of the backs with surgical curved scissors.
Beraprost (sodium salt) as a test medicament was prepared in the form of a saline solution containing 20 % ethanol, and the saline solution was dropwise administered at a dosage of 5 μg/10 μl/cm^2 ×14 times (once per day for 14 days). As control, a solution (vehicle) containing no medicament was administered.
For evaluating the effects of the test medicament, the wound surfaces were traced on plastic sheets at intervals of 2-3 days, and measured for wound areas with a planimeter. The ratios of the wound areas to the area immediately after the skin ablation were calculated, and the numbers of days required for the visual completion of epidermization (complete healing) from the skin-removed wounds were used as indices.
Further, the degrees of the vascularization and granulation of wound surfaces were visually scored, and changes with the passage of days and side effects were observed.
Further, an exudate was collected 9 days after the skin ablation, and a mixture of the exudate with a saline solution used for washing the wound was measured for a leucocyte number through a microscope.
Further, the mice were sacrificed by ether anesthesia on 31th day, and skins of the wound portions were cut off and fixed with a 10% neutral buffer formalin solution. Then, paraffin sections, Hematoxyrin-Eosin-stained specimens and Masson trichrome-stained specimens were prepared according to conventional methods and observed through a microscope.

platelet aggregation = settings: background statement; cited from earlier work
[5] = intrarectal 0.03 mg/kg, on average, P<0.01
[6] = intrarectal, average ± standard error, ** P < 0.01
[7] = score + (Low degree), intrarectal, distribution XX P < 0.01
[8] = score ++ (Intermediate degree), intrarectal
[9] = 9 days after the administration, as compared with vehicle
[10] = 9 days after the administration, mean ± S.E., ** P < 0.01 vs vehicle
[11] = score + (Low degree), 31 days after the skin ablation
[12] = score + (Low degree), 31 days after the skin ablation, distribution * P < 0.05 (H test)
[13] = score ++ (Intermediate degree), 31 days after the skin ablation
[14] = score +++ (High degree), 31 days after the skin ablation
[15] = score - (Not affected), 31 days after the skin ablation

SMILES: CC#CCC(C)[C@H](O)/C=C/[C@@H]1[C@H]2c3cccc(CCCC(=O)O)c3O[C@H]2C[C@H]1O (relative stereo) [Beraprost, (±)-(1R*, 2R*,3aS*,8bS*)-2,3,3a,8b-tetrahydro-2-hydroxy-1-[(E)-(3S*)-3-hydroxy-4-methyl-1-octen-6-ynyl]-1H-cyclopenta[b]benzofuran-5-butyric acid]
- solubility in water (Solubility in water): soluble in water
- chemical stability (Chemical stability): chemically stable
- dosage group with the largest effect ([1]; intrarectal): 0.03 mg/kg
- Inhibition ratio ([1]; intrarectal 0.01 mg/kg): 22.9%
- Wet weight of anus-rectum ([1]; intrarectal 0.01 mg/kg, average ± standard error, ** P < 0.01 vs control): 303.3 ± 6.25 mg
- Inhibition ratio ([1]; intrarectal 0.03 mg/kg): 35.8%
- histology of rectum (in words) ([1]; intrarectal 0.03 mg/kg): the degrees of swelling and inflammatory cell infiltration lowered; also recorded: the mucosal epithelial cell nucleus was more densely stained than in a normal portion, and cells which appeared to be in an active state were distinctly observed; also recorded: the degree of congestion was lowered
- Wet weight of anus-rectum ([1]; intrarectal 0.03 mg/kg, average ± standard error, ** P < 0.01 vs control): 277.3 ± 12.88 mg
- number of blood vessels having red thrombus [1, 5]: 6.8±2.35
- range of bleeding, necrosis and peeling of mucosal layer [1, 5]: 5.4±0.19 mm
- Inhibition ratio ([1]; intrarectal 0.1 mg/kg): 30.1%
- Wet weight of anus-rectum ([1]; intrarectal 0.1 mg/kg, average ± standard error, ** P < 0.01 vs control): 288.7 ± 5.63 mg
- Inhibition ratio ([1]; intrarectal 0.3 mg/kg): 24.6%
- Wet weight of anus-rectum ([1]; intrarectal 0.3 mg/kg, average ± standard error, ** P < 0.01 vs control): 299.7 ± 9.74 mg
- Inhibition ratio ([1]; intrarectal 1.0 mg/kg): 20.5%
- Wet weight of anus-rectum ([1]; intrarectal 1.0 mg/kg, average ± standard error, * P < 0.05 vs control): 308.0 ± 14.51 mg
- inhibition of rectum-anus weight increase (in words) ([1]; intrarectal 0.01 to 1.0 mg/kg, P<0.05 to 0.01): significant inhibition activity
- Mucosa Bleeding, Necrosis, Peeling (total length from anus transition portion) [1, 6]: 5.4 ± 0.19 mm
- Mucosa Red thrombus (number of thrombus) [1, 6]: 6.8 ± 2.35
- Inhibition ratio ([1]; oral 0.1 mg/kg): 24.5%
- Wet weight of anus-rectum ([1]; oral 0.1 mg/kg, average ± standard error, ** P < 0.01 vs control): 307.1 ± 5.87 mg
- Inhibition ratio ([1]; oral 0.3 mg/kg): 32.3%
- Wet weight of anus-rectum ([1]; oral 0.3 mg/kg, average ± standard error, ** P < 0.01 vs control): 292.5 ± 11.28 mg
- Inhibition ratio ([1]; oral 1.0 mg/kg): 39.3%
- Wet weight of anus-rectum ([1]; oral 1.0 mg/kg, average ± standard error, ** P < 0.01 vs control): 279.3 ± 8.32 mg
- swelling inhibition activity (in words) ([1]; oral 0.1 to 1.0 mg/kg, depending upon the dosage): clear swelling inhibition activity depending upon the dosage
- swelling in rectum-anus portion and histopathological data (overall, in words) ([1]; orally and intrarectally administered): clearly inhibits the swelling; also recorded: remarkable effects in histopathological data
- Submucosa Inflammatory cell infiltration, number of rats ([1]; score + (Low degree), intrarectal, distribution X P < 0.05): 5
- Mucosa Congestion, number of rats [1, 7]: 8
- Mucosa Epithelium Activation, number of rats [1, 7]: 2
- Mucosa Congestion, number of rats [1, 8]: 0
- Mucosa Epithelium Activation, number of rats [1, 8]: 6
- Submucosa Inflammatory cell infiltration, number of rats [1, 8]: 3
- Submucosa Swelling, number of rats ([1]; score ++ (Intermediate degree), intrarectal, distribution XX P < 0.01): 8
- Submucosa Swelling, number of rats ([1]; score +++ (High degree), intrarectal): 0
- Mucosa Epithelium Activation, number of rats ([1]; score - (No change), intrarectal): 0
- Inhibition ratio ([2]; i.r. 0.03 mg/kg): 31.4%
- Wet weight of anus-rectum ([2]; i.r. 0.03 mg/kg): 368.5 ± 27.35 mg
- activity for inhibiting the swelling (in words) ([2]; oral 0.1 mg/kg and intrarectal 0.03 mg/kg, P<0.05): significant (P<0.05) activity for inhibiting the swelling
- Inhibition ratio ([2]; p.o. 0.1 mg/kg): 27.1%
- Wet weight of anus-rectum ([2]; p.o. 0.1 mg/kg): 380.7 ± 23.74 mg
- chemical stability [3]: chemically stable
- change ratio of wound area ([4]; 3 days after administration, 5 μg/10 μl/cm^2 once per day for 14 days, mean ± S.E.): 95.7 ± 2.50%
- amount of exudate (in words) [4, 9]: clear increase
- number of infiltrated leucocyte (in words) [4, 9]: clear increase
- Amount of exudate [4, 10]: 36.6 ± 10.73 µL
- Number of infiltrated leucocyte [4, 10]: 110.1 ± 31.66 × 10^4 cells/site
- change ratio of wound area ([4]; 10 days after administration, mean ± S.E., ** P < 0.01 vs vehicle): 24.4%
- change ratio of wound area ([4]; 21 days after administration, mean ± S.E., * P < 0.05 vs vehicle): 0.1%
- histology of skin ablation portions (in words) ([4]; 31 days after the skin ablation): the whole areas were covered with regenerated skin and the exudate of the dermis disappeared; also recorded: the tissue showed transition to fibrosis, no formation of abnormal tissue or no scar of excess formation was shown, and normal wound healing was shown
- completion of healing first observed ([4]; day after administration): from the twenty-first day after administration
- wound surfaces (decrease, in words) ([4]; from the sixth day after administration, as compared with vehicle): remarkable decreases
- Days until complete healing ([4]; mean ± S.E., ** P < 0.01 vs vehicle): 22 days
- systemic side effects ([4]; mouse, in vivo): no systemic side effects
- weight difference from vehicle-administered group ([4]; mouse, in vivo): no weight difference was observed
- Dermis, Subcutaneous tissue Exudate, number of cases [4, 11]: 1 cases in six mice
- Epidermis Hypertrophy, number of cases [4, 11]: 1 cases in six mice
- Epidermis Regeneration, number of cases [4, 11]: 0 cases in six mice
- Dermis, Subcutaneous tissue Fibrosis, number of cases [4, 12]: 0 cases in six mice
- Dermis, Subcutaneous tissue Granulation, number of cases [4, 12]: 2 cases in six mice
- Dermis, Subcutaneous tissue Fibrosis, number of cases [4, 13]: 2 cases in six mice
- Dermis, Subcutaneous tissue Granulation, number of cases [4, 13]: 0 cases in six mice
- Epidermis Regeneration, number of cases ([4]; score ++ (Intermediate degree), 31 days after the skin ablation, distribution * P < 0.05 (H test)): 0 cases in six mice
- Dermis, Subcutaneous tissue Fibrosis, number of cases [4, 14]: 4 cases in six mice
- Epidermis Regeneration, number of cases [4, 14]: 6 cases in six mice
- Dermis, Subcutaneous tissue Fibrosis, number of cases [4, 15]: 0 cases in six mice
- Dermis, Subcutaneous tissue Granulation, number of cases [4, 15]: 4 cases in six mice
- Epidermis Regeneration, number of cases [4, 15]: 0 cases in six mice
- Dermis, Subcutaneous tissue Exudate, number of cases ([4]; score - (Not affected), 31 days after the skin ablation, distribution * P < 0.05 (H test)): 5 cases in six mice
- vascularization and granulation on the wound surfaces ([4]; visual, as compared with vehicle-administered group): clear expeditious progress in the vascularization and granulation

SMILES: CCCCC[C@H](O)/C=C/[C@H]1[C@H](O)CC(=O)[C@@H]1CCCCCCC(=O)O [PGE1, prostaglandin E1]
- inhibition activity of platelet aggregation (platelet aggregation): high inhibition activity of platelet aggregation

SMILES: CCCCC[C@H](O)/C=C/[C@@H]1[C@H]2C/C(=C/CCCC(=O)O)O[C@H]2C[C@H]1O [PGI2, Prostaglandin I2]
- chemical stability [3]: chemically unstable
- inhibition activity of platelet aggregation (platelet aggregation): high inhibition activity of platelet aggregation
